Laboratory results taken from ChEMBL document CHEMBL4825698, “Identification of novel benzothiopyranones with ester and amide motifs derived from active metabolite as promising leads against Mycobacterium tuberculosis” (Eur J Med Chem, 2021).
In brackets after ≈: the same amount, converted by molar mass.

Experiments:
[1] = tested on: Mycobacterium tuberculosis; test: Antitubercular activity against isoniazid,streptomycin,rifampicin,ethambutol,para-aminosalicylate,prothionamide,capreomycin-resistant Mycobacterium tuberculosis clinical isolate 14862 assessed as bacterial growth inhibition incubated for 7 days by MABA assay; type: functional; settings: clinical isolate 14862, 168 h, time 7 day
[2] = tested on: Mycobacterium tuberculosis; test: Antitubercular activity against isoniazid,streptomycin,rifampicin,ethambutol, rifabutin, para-aminosalicylat, ofloxacin-resistant Mycobacterium tuberculosis clinical isolate 13946 assessed as inhibition of bacterial growth incubated for 7 days by MABA assay; type: functional; settings: clinical isolate 13946, 168 h, time 7 day

Compound	MIC [1] [µg/mL]	MIC [2] [µg/mL]
O=C(OC1CCC(CN2CCN(c3cc(=O)c4cc(C(F)(F)F)cc([N+](=O)[O-])c4s3)CC2)CC1)c1ccccc1 (centres undefined)	0.162 (≈ 0.281 µM)	0.216 (≈ 0.375 µM)
CS(=O)(=O)OC1CCC(CN2CCN(c3cc(=O)c4cc(C(F)(F)F)cc([N+](=O)[O-])c4s3)CC2)CC1 (centres undefined)	0.001 (≈ 0.00182 µM)	< 0.001
CC(=O)OC1CCC(CN2CCN(c3cc(=O)c4cc(C(F)(F)F)cc([N+](=O)[O-])c4s3)CC2)CC1 (centres undefined)	0.062 (≈ 0.121 µM)	0.062 (≈ 0.121 µM)
O=c1cc(N2CCN(CC3CCC(OS(=O)(=O)c4ccccc4)CC3)CC2)sc2c([N+](=O)[O-])cc(C(F)(F)F)cc12 (centres undefined)	0.002 (≈ 0.00327 µM)	0.001 (≈ 0.00163 µM)
O=c1cc(N2CCN(CC3CCC(OS(=O)(=O)c4cccnc4)CC3)CC2)sc2c([N+](=O)[O-])cc(C(F)(F)F)cc12 (centres undefined)	< 0.001	< 0.001
NNC(=O)c1ccncc1 [ISONIAZID]	> 10	> 10
CO[C@H]1/C=C/O[C@@]2(C)Oc3c(C)c(O)c4c(O)c(c(/C=N/N5CCN(C)CC5)c(O)c4c3C2=O)NC(=O)/C(C)=C\C=C\[C@H](C)[C@H](O)[C@@H](C)[C@@H](O)[C@@H](C)[C@H](OC(C)=O)[C@@H]1C [RIFAMPIN]	> 10	> 10
